Data from ChEMBL document CHEMBL5331141.
Activity calls are given as the source filed them. No cut-off for these calls is given here.

Test system: HEK293
Experiment: Effect on HEK293 cells lacking human mu opioid receptor assessed as inhibition of cAMP accumulation at 1 uM
Assay type: functional, cell-based

SMILES	Activity
C=C(C)[C@@H]1CCC(C)=C[C@H]1c1c(O)cc(CCC)cc1O	inactive
C=C(C)[C@@H]1CCC(C)=C[C@H]1c1c(O)cc(CCCCC)cc1O	inactive
C=CCN1CC[C@]23c4c5ccc(O)c4O[C@H]2C(=O)CC[C@@]3(O)[C@H]1C5	inactive
